Data published in publication PMC8121435, “Cork-in-bottle mechanism of inhibitor binding to mammalian complex I” (Science Advances, 2021).

What was measured:
Format in all cases: biochemical
[1] = molecular target: T1, complex I in mitochondrial membranes (Yarrowia lipolytica, UniProt Q9B6E8+Q9UUT7+Q9UUU1); assay: NADH oxidation in Y. lipolytica mitochondrial membranes
T1 sequence (Q9B6E8 1-341): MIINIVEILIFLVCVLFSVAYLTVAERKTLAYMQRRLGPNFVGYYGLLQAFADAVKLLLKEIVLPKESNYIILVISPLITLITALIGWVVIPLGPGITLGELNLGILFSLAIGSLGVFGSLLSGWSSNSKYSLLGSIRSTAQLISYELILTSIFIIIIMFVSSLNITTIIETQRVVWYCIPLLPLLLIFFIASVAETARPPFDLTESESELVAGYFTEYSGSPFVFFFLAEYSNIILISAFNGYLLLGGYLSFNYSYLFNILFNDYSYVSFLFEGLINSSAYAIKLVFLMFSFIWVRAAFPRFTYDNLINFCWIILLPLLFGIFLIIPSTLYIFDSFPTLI
T1 sequence (Q9UUU1 22-466): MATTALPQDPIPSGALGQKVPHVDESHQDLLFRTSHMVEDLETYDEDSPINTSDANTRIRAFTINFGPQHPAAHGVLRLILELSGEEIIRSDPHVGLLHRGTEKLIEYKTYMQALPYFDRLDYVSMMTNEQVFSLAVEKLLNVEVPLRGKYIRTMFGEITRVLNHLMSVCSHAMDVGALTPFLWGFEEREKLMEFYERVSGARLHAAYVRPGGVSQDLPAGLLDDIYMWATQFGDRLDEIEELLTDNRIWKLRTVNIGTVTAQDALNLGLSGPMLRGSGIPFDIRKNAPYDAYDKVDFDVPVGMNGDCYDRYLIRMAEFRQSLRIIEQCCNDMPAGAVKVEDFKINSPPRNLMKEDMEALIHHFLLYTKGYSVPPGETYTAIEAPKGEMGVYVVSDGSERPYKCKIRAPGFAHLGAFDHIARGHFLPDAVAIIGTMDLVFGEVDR
T1 sequence (Q9UUT7 28-210): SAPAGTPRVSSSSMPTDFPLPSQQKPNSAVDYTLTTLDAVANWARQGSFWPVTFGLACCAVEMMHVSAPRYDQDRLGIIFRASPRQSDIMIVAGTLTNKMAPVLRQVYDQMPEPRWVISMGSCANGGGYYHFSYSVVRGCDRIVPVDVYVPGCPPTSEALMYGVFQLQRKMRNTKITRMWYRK
Description: (§1) All catalytic activity assays were conducted at 32°C in 96-well plates using a Molecular Devices Spectramax 384 plus plate reader. Catalysis was initiated by addition of 200 μM NADH and monitored at 340 and 380 nm (ε340–380 = 4.81 mM^−1 cm^−1). Linear rates were measured for all assays, inhibitors were added from dimethyl sulfoxide stock solutions as required, and inhibitor-insensitive rates (using either 1 μM piericidin A or 1.4 μM IACS-2858) were subtracted from each measured rate. Membrane samples were prepared as described previously ([17], [20], [59], [60]), diluted to 20 μg ml^−1 in 10 mM tris-SO4 (pH 7.5) and 250 mM sucrose, and supplemented with 3 μM horse heart cytochrome c (except for P. denitrificans, for which the activity is unaffected by the addition). Mouse, bovine, and yeast (Y. lipolytica) complex I were purified as described previously ([17], [20], [59]); diluted to 0.5 nM in 20 mM tris-HCl (pH 7.5), 0.15% asolectin, and 0.15% CHAPS; and assayed using either 200 μM dQ or 200 μM ubiquinone-1 (Sigma-Aldrich). Complex I was purified from P. denitrificans strain Pd1222 ([61]) and provided by O. D. Jarman (MRC Mitochondrial Biology Unit, University of Cambridge); it was assayed likewise but in 10 mM MES-HCl (pH 6.5), 25 mM NaCl, and 2 mM CaCl2. […]

complex I = assay: NADH:ubiquinone-1 oxidoreduction in the presence of inhibitor; settings: 200 μM ubiquinone-1
Description: as §1

[2] = molecular target: T2, complex I in mitochondrial membranes (Mus musculus, UniProt P03888+Q91WD5+Q9DC70); assay: NADH oxidation in mouse mitochondrial membranes; settings: M. musculus membranes 20 μg ml−1; ± SE
T2 construct: from tissue; host or cells: mouse (C57BL/6) heart mitochondria
Description: as §1

[3] = molecular target: T3, complex I in bacterial membranes (Paracoccus denitrificans, UniProt P29916+P29918+P29920); assay: NADH oxidation in P. denitrificans bacterial membranes; settings: P. denitrificans membranes 20 μg ml−1
T3 construct: Complex I was purified from P. denitrificans strain Pd1222; endogenous in cells; host or cells: P. denitrificans strain Pd1222
Description: as §1

With `CS(=O)(=O)C1CCN(c2cccc(Cn3cc(-c4nc(-c5ccc(OC(F)(F)F)cc5)no4)ccc3=O)c2)CC1` [IACS-2858, 1-(3-(4-(Methylsulfonyl)piperidin-1-yl)benzyl)-5-(3-(4-(trifluoromethoxy)phenyl)-1,2,4-oxadiazol-5-yl)pyridin-2(1H)-one] the IC50 [1] was ~7.2 µM, the “reduction of ubiquinone-1 in the presence of the inhibitor” value (complex I) was “No activity was observed” and the IC50 [2] was 0.0014 ± 0.0001 µM. It also gave an IC50 [3] of ~61 µM.
